Measurements taken from patent US20050032904A1, “Composition and use of allylamine derivatives” (priority 2003, published 2005).

Tests used:
Assay in all cases: Western blot of cell cycle regulatory proteins
Format in all cases: cell-based, human
[1] = tested on: cell cycle regulatory proteins in HT 29 cells; settings: TB 60-150 μM, 15 h; dose-dependent
Description: (§1) To further test this hypothesis, the dose effects of TB on the levels of cell cycle regulatory protein were conducted in four different human cancer cell lines, COLO 205 (p53 wild type), HT 29 (p53 […] mutant), Hep 3B (p53 partial deleted) and HL 60 (p53 null). […] The cells were rendered quiescent for 24 h, and then challenged with 10% FCS and treated with various concentrations of TB (60-150 μM) for additional 15 h. Protein extracts (100 μg/lane) were separated by SDS-PAGE, probed with specific antibodies, and detected using the NBT/BCIP system. Membranes were also probed with anti-GAPDH antibody to correct for differences in protein loading. As previously described (Chen R J, et. al., Toxicology & Applied Pharmacology 2000;169(2):132-41.), the frozen tumor was pulverized in liquid N2, and then mixed with lysis buffer (Tris-HCl 0.5 M, pH 6.8, SDS 0.4%). For cell cultures, the cells were seeded onto 150-mm dishes and grown in RPMI 1640 (for COLO 205, HT 29 and HL 60 cells) or MEM (for Hep 3B) supplemented with 10% FCS. After the cells had grown to subconfluence, they were rendered quiescent. The cells were released from quiescence with culture medium supplemented with 10% FCS. TB in 0.05% DMSO or 0.05% DMSO without TB was added to the cells at various concentrations and the mixture was allowed to incubate for 17 h. Western blot analysis was performed as previously described (Chen R J, et. al., Toxicology & Applied Pharmacology 2000;169(2):132-41; Lee W S, et. al., Circulation Research 1998;82(8):845-51.). Immunodetection was carried by probing with proper dilutions of specific antibodies at room temperature for 2 h. Anti-p21/Cip1, anti-p27/Kip1, anti-p53, anti-GAPDH monoclonal antibodies (Santa Cruz, Inc. CA); anti-cyclin B1, D1, and D3, anti-cdk2 and cdk4, and PCNA monclonal antibodies (Transduction Laboratories, Lexington, Ky.) were used at a concentration of 1:1,000 dilution. Anti-cyclin A and E polyclonal antibodies (Transduction, San Diego, Calif.) were used at a concentration of 1:250 dilution. […] Sigma Chemical Co., St. Louis, Mo.). In each experiment, membranes were also probed with anti-GAPDH antibody to correct for differences in protein loading.

[2] = tested on: cell cycle regulatory proteins in Hep 3B cells; settings: TB 60-150 μM, 15 h
Description: as §1

[3] = tested on: cell cycle regulatory proteins in HL 60 cells; settings: TB 60-150 μM, 15 h
Description: as §1

CN(C/C=C/C#CC(C)(C)C)Cc1cccc2ccccc12 [TB, 1-Naphthalenemethanamine, N-(6,6-dimethyl-2-hepten-4-ynyl)-N-methyl-, (E)-]
levels of cyclin D3 and cdk4, dose effect [1]: decreased | levels of p53, p21/Cip1 and p27/Kip1 protein, dose effect [1]: increased | levels of p53 and p21/Cip1 protein, dose effect [2]: did not change | levels of p27/Kip1 protein, dose effect ([2]; dose-dependent): significantly increased | levels of p53 and p21/Cip1 protein, dose effect [3]: did not change | levels of p27/Kip1 protein, dose effect ([3]; dose-dependent): significantly increased
